Reference: ChEMBL document CHEMBL1201861, “Genomics of Drug Sensitity in Cancer screening data, Wellcome Trust Sanger Institute”

Columns and labels:
SR = assay: cells; type: functional, cell-based; conditions: Homo sapiens
Description: SANGER: Inhibition of human SR cell growth in a cell viability assay.

SCC-3 = assay: cells; type: functional, cell-based; conditions: Homo sapiens;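 further: cell viability assay measuring inhibition of SCC-3 cell growth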
Description: SANGER: Inhibition of human SCC-3 cell growth in a cell viability assay.

KALS-1 = assay: cells; type: functional, cell-based, Homo sapiens; conditions: Homo sapiens, KALS-1;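 further: growth inhibition of KALS-1 cells, determined with a cell viability assay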
Description: SANGER: Inhibition of human KALS-1 cell growth in a cell viability assay.

ARH-77 = assay: cells; type: functional, cell-based; conditions: Homo sapiens;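 further: growth inhibition of ARH-77 cells, read out by a cell viability assay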
Description: SANGER: Inhibition of human ARH-77 cell growth in a cell viability assay.

GI-1 = assay: cells; type: functional, cell-based, Homo sapiens; conditions: Homo sapiens, GI-1;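 further: growth inhibition of human GI-1 cells, measured with a cell viability readout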
Description: SANGER: Inhibition of human GI-1 cell growth in a cell viability assay.

Lu-65 = assay: cells; type: functional, cell-based; conditions: Homo sapiens;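 further: growth inhibition of Lu-65 cancer cells, read out by a cell viability assay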
Description: SANGER: Inhibition of human LU-65 cell growth in a cell viability assay.

IMR-5 = assay: cells; type: functional, cell-based; conditions: Homo sapiens;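 further: growth inhibition of human IMR-5 cells, read out with a cell viability assay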
Description: SANGER: Inhibition of human IMR-5 cell growth in a cell viability assay.

MRK-nu-1 = assay: cells; type: functional, cell-based; conditions: Homo sapiens;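 further: cell viability assay measuring growth suppression of human MRK-nu-1 cells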
Description: SANGER: Inhibition of human MRK-nu-1 cell growth in a cell viability assay.

NCI-H1436 = assay: cells; type: functional, cell-based; conditions: Homo sapiens;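 further: growth suppression of human NCI-H1436 cells, determined with a cell viability readout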
Description: SANGER: Inhibition of human NCI-H1436 cell growth in a cell viability assay.

KU-19-19 = assay: cells; type: functional, cell-based, Homo sapiens; conditions: Homo sapiens, KU-19-19
Description: SANGER: Inhibition of human KU-19-19 cell growth in a cell viability assay.

SAS = assay: cells; type: functional, cell-based, Homo sapiens; conditions: Homo sapiens, SAS;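 further: growth inhibition of SAS cells, read out with a cell viability assay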
Description: SANGER: Inhibition of human SAS cell growth in a cell viability assay.

NCI-H1703 = assay: cells; type: functional, cell-based, Homo sapiens; conditions: Homo sapiens, NCI-H1703;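 further: growth inhibition of NCI-H1703 cells, read out via a cell viability assay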
Description: SANGER: Inhibition of human NCI-H1703 cell growth in a cell viability assay.

ST486 = assay: SANGER: Inhibition of human ST486 cell growth in a cell viability assay.; type: functional, cell-based
PANC-08-13 = assay: cells; type: functional, cell-based, Homo sapiens; conditions: Homo sapiens, PANC-08-13
Description: SANGER: Inhibition of human PANC-08-13 cell growth in a cell viability assay.

SW1990 = assay: cells; type: functional, cell-based, Homo sapiens; conditions: Homo sapiens, SW1990
Description: SANGER: Inhibition of human SW1990 cell growth in a cell viability assay.

NCI-H2141 = assay: cells; type: functional, cell-based; conditions: Homo sapiens;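 further: growth inhibition of human NCI-H2141 cells, read out with a cell viability assay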
Description: SANGER: Inhibition of human NCI-H2141 cell growth in a cell viability assay.

G-361 = assay: cells; type: functional, cell-based, Homo sapiens; conditions: Homo sapiens, G-361
NCI-H889 = assay: cells; type: functional, cell-based; conditions: Homo sapiens;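 further: cell growth inhibition of the cell line, read out with a viability assay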
Description: SANGER: Inhibition of human NCI-H889 cell growth in a cell viability assay.

KMS-12-PE = assay: cells; type: functional, cell-based; conditions: Homo sapiens;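 further: growth inhibition of human KMS-12-PE cells, measured with a cell viability assay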
Description: SANGER: Inhibition of human KMS-12-PE cell growth in a cell viability assay.

NCI-H1694 = assay: cells; type: functional, cell-based; conditions: Homo sapiens;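 further: cell viability assay measuring inhibition of growth in human NCI-H1694 cells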
Description: SANGER: Inhibition of human NCI-H1694 cell growth in a cell viability assay.

OAW-28 = assay: cells; type: functional, cell-based, Homo sapiens; conditions: Homo sapiens, OAW-28;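 further: growth inhibition of OAW-28 cells, read out with a cell viability assay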
Description: SANGER: Inhibition of human OAW-28 cell growth in a cell viability assay.

REH = assay: cells; type: functional, cell-based; conditions: Homo sapiens;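 further: growth inhibition of REH cells determined with a cell viability read-out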
Description: SANGER: Inhibition of human REH cell growth in a cell viability assay.

A4-Fuk = assay: cells; type: functional, cell-based; conditions: Homo sapiens;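 further: growth inhibition of A4-Fuk cells, read out by a cell viability assay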
Description: SANGER: Inhibition of human A4-Fuk cell growth in a cell viability assay.

BC1 cell line = assay: SANGER: Inhibition of human BC-1 cell growth in a cell viability assay.; type: functional, cell-based
Daudi = assay: cells; type: functional, cell-based; conditions: Homo sapiens;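 further: growth inhibition of Daudi cells, read out by a viability assay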
Description: SANGER: Inhibition of human Daudi cell growth in a cell viability assay.

EB-3 = assay: cells; type: functional, cell-based; conditions: Homo sapiens;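 further: human EB-3 cells, growth inhibition read out via a cell viability assay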
Description: SANGER: Inhibition of human EB-3 cell growth in a cell viability assay.

BOKU = assay: cells; type: functional, cell-based; conditions: Homo sapiens;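 further: growth inhibition of the human BOKU cell line, read out by a cell viability assay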
Description: SANGER: Inhibition of human BOKU cell growth in a cell viability assay.

K052 = assay: cells; type: functional, cell-based; conditions: Homo sapiens;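 further: Read-out from a cell viability assay, IC50 reflecting suppression of K052 cell growth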
Description: SANGER: Inhibition of human K052 cell growth in a cell viability assay.

CA46 = assay: cells; type: functional, cell-based; conditions: Homo sapiens;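 further: growth inhibition of human CA46 cells, read out by a cell viability assay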
Description: SANGER: Inhibition of human CA46 cell growth in a cell viability assay.

NCI-H345 = assay: cells; type: functional, cell-based; conditions: Homo sapiens;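 further: growth inhibition of NCI-H345 cells measured with a cell viability assay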
Description: SANGER: Inhibition of human NCI-H345 cell growth in a cell viability assay.

NCI-H2081 = assay: cells; type: functional, cell-based; conditions: Homo sapiens;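 further: growth inhibition of human NCI-H2081 cells, read out with a cell viability assay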
Description: SANGER: Inhibition of human NCI-H2081 cell growth in a cell viability assay.

L-540 = assay: cells; type: functional, cell-based; conditions: Homo sapiens;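 further: growth inhibition of the human L-540 cell line, read out with a viability assay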
Description: SANGER: Inhibition of human L-540 cell growth in a cell viability assay.

SUP-T1 = assay: cells; type: functional, cell-based; conditions: Homo sapiens;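 further: growth inhibition of human SUP-T1 cells, read out as cell viability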
Description: SANGER: Inhibition of human SUP-T1 cell growth in a cell viability assay.

NCI-H1963 = assay: cells; type: functional, cell-based; conditions: Homo sapiens
Description: SANGER: Inhibition of human NCI-H1963 cell growth in a cell viability assay.

D283 Med = assay: cells; type: functional, cell-based, Homo sapiens; conditions: Homo sapiens, D283 Med
Description: SANGER: Inhibition of human D-283MED cell growth in a cell viability assay.

TE-15 = assay: cells; type: functional, cell-based; conditions: Homo sapiens;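 further: cell viability readout of growth inhibition in TE-15 cells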
Description: SANGER: Inhibition of human TE-15 cell growth in a cell viability assay.

KARPAS-422 = assay: cells; type: functional, cell-based; conditions: Homo sapiens
Description: SANGER: Inhibition of human KARPAS-422 cell growth in a cell viability assay.

LB647-SCLC = assay: cells; type: functional, cell-based; conditions: Homo sapiens;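 further: cell growth inhibition, read out by a viability assay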
Description: SANGER: Inhibition of human LB647-SCLC cell growth in a cell viability assay.

Raji = assay: cells; type: functional, cell-based; conditions: Homo sapiens;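 further: cell viability assay measuring inhibition of Raji cell growth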
Description: SANGER: Inhibition of human Raji cell growth in a cell viability assay.

DoTc2-4510 = assay: cells; type: functional, cell-based, Homo sapiens; conditions: Homo sapiens, DoTc2-4510
NCI-H2009 = assay: cells; type: functional, cell-based, Homo sapiens; conditions: Homo sapiens, NCI-H2009;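 further: cell viability assay measuring inhibition of NCI-H2009 cell growth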
Description: SANGER: Inhibition of human NCI-H2009 cell growth in a cell viability assay.

NB12 = assay: cells; type: functional, cell-based, Homo sapiens; conditions: Homo sapiens, NB12;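 further: growth inhibition of human NB12 cells, read out by a cell viability assay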
Description: SANGER: Inhibition of human NB12 cell growth in a cell viability assay.

Ca9-22 = assay: cells; type: functional, cell-based, Homo sapiens; conditions: Homo sapiens, Ca9-22;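 further: growth inhibition of Ca9-22 cells, read out with a cell viability assay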
Description: SANGER: Inhibition of human Ca9-22 cell growth in a cell viability assay.

SNU-C1 = assay: cells; type: functional, cell-based; conditions: Homo sapiens;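 further: growth inhibition of SNU-C1 human cells, read out by a cell viability assay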
Description: SANGER: Inhibition of human SNU-C1 cell growth in a cell viability assay.

CAKI-1 = assay: cells; type: functional, cell-based, Homo sapiens; conditions: Homo sapiens, CAKI-1;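 further: growth inhibition of CAKI-1 cells, measured by a cell viability assay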
Description: SANGER: Inhibition of human CAKI-1 cell growth in a cell viability assay.

Kasumi 1 = assay: cells; type: functional, cell-based; conditions: Homo sapiens;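 further: growth inhibition of human Kasumi-1 cells, read out by a cell viability assay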
Description: SANGER: Inhibition of human KASUMI-1 cell growth in a cell viability assay.

OAW-42 = assay: cells; type: functional, cell-based, Homo sapiens; conditions: Homo sapiens, OAW-42;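 further: growth inhibition of OAW-42 cells, read out with a cell viability assay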
Description: SANGER: Inhibition of human OAW-42 cell growth in a cell viability assay.

G-402 = assay: cells; type: functional, cell-based, Homo sapiens; conditions: Homo sapiens, G-402
Description: SANGER: Inhibition of human G-402 cell growth in a cell viability assay.

ECC4 = assay: cells; type: functional, cell-based; conditions: Homo sapiens;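 further: growth inhibition of ECC4 cells, read out with a cell viability assay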
Description: SANGER: Inhibition of human ECC4 cell growth in a cell viability assay.

NCI-H524 = assay: cells; type: functional, cell-based; conditions: Homo sapiens;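 further: growth inhibition of human NCI-H524 cells, read out through a cell viability assay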
Description: SANGER: Inhibition of human NCI-H524 cell growth in a cell viability assay.

KURAMOCHI = assay: cells; type: functional, cell-based; conditions: Homo sapiens;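 further: growth inhibition of KURAMOCHI cells, read out with a cell viability assay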
Description: SANGER: Inhibition of human KURAMOCHI cell growth in a cell viability assay.

NCI-H1299 = assay: cells; type: functional, cell-based, Homo sapiens; conditions: Homo sapiens, NCI-H1299;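 further: growth inhibition of human NCI-H1299 cells, read out by a cell viability assay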
Description: SANGER: Inhibition of human NCI-H1299 cell growth in a cell viability assay.

Cc1cnc(-c2cnc(NCCNc3ccc(C#N)cn3)nc2-c2ccc(Cl)cc2Cl)[nH]1 [LADUVIGLUSIB]
IC50 (SR): > 2.56 µM | IC50 (SCC-3): > 2.56 µM | IC50 (KALS-1): > 2.56 µM | IC50 (ARH-77): > 2.56 µM | IC50 (GI-1): > 2.56 µM | IC50 (Lu-65): > 2.56 µM | IC50 (IMR-5): > 2.56 µM | IC50 (MRK-nu-1): > 2.56 µM | IC50 (NCI-H1436): > 2.56 µM | IC50 (KU-19-19): > 2.56 µM | IC50 (SAS): > 2.56 µM | IC50 (NCI-H1703): > 2.56 µM | IC50 (ST486): > 2.56 µM | IC50 (PANC-08-13): > 2.56 µM | IC50 (SW1990): > 2.56 µM | IC50 (NCI-H2141): > 2.56 µM | IC50 (G-361): > 2.56 µM | IC50 (NCI-H889): > 2.56 µM | IC50 (KMS-12-PE): > 2.56 µM | IC50 (NCI-H1694): > 2.56 µM | IC50 (OAW-28): > 2.56 µM | IC50 (REH): > 2.56 µM | IC50 (A4-Fuk): > 2.56 µM | IC50 (BC1 cell line): > 2.56 µM | IC50 (Daudi): > 2.56 µM | IC50 (EB-3): > 2.56 µM | IC50 (BOKU): > 2.56 µM | IC50 (K052): > 2.56 µM | IC50 (CA46): > 2.56 µM | IC50 (NCI-H345): > 2.56 µM | IC50 (NCI-H2081): > 2.56 µM | IC50 (L-540): > 2.56 µM | IC50 (SUP-T1): > 2.56 µM | IC50 (NCI-H1963): > 2.56 µM | IC50 (D283 Med): > 2.56 µM | IC50 (TE-15): > 2.56 µM | IC50 (KARPAS-422): > 2.56 µM | IC50 (LB647-SCLC): > 2.56 µM | IC50 (Raji): > 2.56 µM | IC50 (DoTc2-4510): > 2.56 µM | IC50 (NCI-H2009): > 2.56 µM | IC50 (NB12): > 2.56 µM | IC50 (Ca9-22): > 2.56 µM | IC50 (SNU-C1): > 2.56 µM | IC50 (CAKI-1): > 2.56 µM | IC50 (Kasumi 1): > 2.56 µM | IC50 (OAW-42): > 2.56 µM | IC50 (G-402): > 2.56 µM | IC50 (ECC4): > 2.56 µM | IC50 (NCI-H524): > 2.56 µM | IC50 (KURAMOCHI): > 2.56 µM | IC50 (NCI-H1299): > 2.56 µM

CN(c1ncccc1CNc1nc(Nc2ccc3c(c2)CC(=O)N3)ncc1C(F)(F)F)S(C)(=O)=O [PF-00562271]
IC50 (SR): > 2.56 µM | IC50 (SCC-3): > 2.56 µM | IC50 (KALS-1): > 2.56 µM | IC50 (ARH-77): > 2.56 µM | IC50 (GI-1): > 2.56 µM | IC50 (Lu-65): > 2.56 µM | IC50 (IMR-5): > 2.56 µM | IC50 (MRK-nu-1): > 2.56 µM | IC50 (NCI-H1436): > 2.56 µM | IC50 (KU-19-19): > 2.56 µM | IC50 (SAS): > 2.56 µM | IC50 (NCI-H1703): > 2.56 µM | IC50 (ST486): 1.53 µM | IC50 (PANC-08-13): > 2.56 µM | IC50 (SW1990): > 2.56 µM | IC50 (NCI-H2141): > 2.56 µM | IC50 (G-361): > 2.56 µM | IC50 (NCI-H889): > 2.56 µM | IC50 (KMS-12-PE): > 2.56 µM | IC50 (NCI-H1694): > 2.56 µM | IC50 (OAW-28): > 2.56 µM | IC50 (REH): > 2.56 µM | IC50 (A4-Fuk): > 2.56 µM | IC50 (BC1 cell line): 1.62 µM | IC50 (Daudi): > 2.56 µM | IC50 (EB-3): > 2.56 µM | IC50 (BOKU): > 2.56 µM | IC50 (K052): > 2.56 µM | IC50 (CA46): > 2.56 µM | IC50 (NCI-H345): > 2.56 µM | IC50 (NCI-H2081): > 2.56 µM | IC50 (L-540): > 2.56 µM | IC50 (SUP-T1): > 2.56 µM | IC50 (NCI-H1963): > 2.56 µM | IC50 (D283 Med): > 2.56 µM | IC50 (TE-15): > 2.56 µM | IC50 (KARPAS-422): > 2.56 µM | IC50 (LB647-SCLC): > 2.56 µM | IC50 (Raji): > 2.56 µM | IC50 (DoTc2-4510): > 2.56 µM | IC50 (NCI-H2009): > 2.56 µM | IC50 (NB12): > 2.56 µM | IC50 (Ca9-22): > 2.56 µM | IC50 (SNU-C1): > 2.56 µM | IC50 (CAKI-1): > 2.56 µM | IC50 (Kasumi 1): 2.33 µM | IC50 (OAW-42): > 2.56 µM | IC50 (G-402): > 2.56 µM | IC50 (ECC4): > 2.56 µM | IC50 (NCI-H524): > 2.56 µM | IC50 (KURAMOCHI): > 2.56 µM | IC50 (NCI-H1299): > 2.56 µM

Cn1cncc1[C@@](N)(c1ccc(Cl)cc1)c1ccc2c(c1)c(-c1cccc(Cl)c1)cc(=O)n2C [TIPIFARNIB]
IC50 (SR): 1.79 µM | IC50 (SCC-3): > 16 µM | IC50 (KALS-1): > 16 µM | IC50 (ARH-77): > 16 µM | IC50 (GI-1): 4.42 µM | IC50 (Lu-65): > 16 µM | IC50 (IMR-5): > 16 µM | IC50 (MRK-nu-1): 1.12 µM | IC50 (NCI-H1436): > 16 µM | IC50 (KU-19-19): > 16 µM | IC50 (SAS): > 16 µM | IC50 (NCI-H1703): > 16 µM | IC50 (ST486): 1.26 µM | IC50 (PANC-08-13): > 16 µM | IC50 (SW1990): 12.4 µM | IC50 (NCI-H2141): > 16 µM | IC50 (G-361): 1.14 µM | IC50 (NCI-H889): > 16 µM | IC50 (KMS-12-PE): > 16 µM | IC50 (NCI-H1694): > 16 µM | IC50 (OAW-28): > 16 µM | IC50 (REH): 0.0592 µM | IC50 (A4-Fuk): 0.0206 µM | IC50 (BC1 cell line): 0.13 µM | IC50 (Daudi): 2.5 µM | IC50 (EB-3): 9.1 µM | IC50 (BOKU): > 16 µM | IC50 (K052): 15.9 µM | IC50 (CA46): 2.39 µM | IC50 (NCI-H345): > 16 µM | IC50 (NCI-H2081): > 16 µM | IC50 (L-540): 4.83 µM | IC50 (SUP-T1): 0.787 µM | IC50 (NCI-H1963): > 16 µM | IC50 (D283 Med): > 16 µM | IC50 (TE-15): 0.365 µM | IC50 (KARPAS-422): > 16 µM | IC50 (LB647-SCLC): > 16 µM | IC50 (Raji): 12.5 µM | IC50 (DoTc2-4510): 1.68 µM | IC50 (NCI-H2009): 0.363 µM | IC50 (NB12): 7.99 µM | IC50 (Ca9-22): 2.94 µM | IC50 (SNU-C1): > 16 µM | IC50 (CAKI-1): > 16 µM | IC50 (OAW-42): 0.956 µM | IC50 (G-402): 2.11 µM | IC50 (ECC4): > 16 µM | IC50 (NCI-H524): > 16 µM | IC50 (KURAMOCHI): 4.78 µM | IC50 (NCI-H1299): 0.693 µM
